{
  "source": "paper doi:10.1101/2023.03.31.535138v1",
  "about": "(biorxiv, 2023)",
  "biological_target": "T1, NudC (Escherichia coli, UniProt P32664)",
  "T1 sequence (P32664 1-257)": "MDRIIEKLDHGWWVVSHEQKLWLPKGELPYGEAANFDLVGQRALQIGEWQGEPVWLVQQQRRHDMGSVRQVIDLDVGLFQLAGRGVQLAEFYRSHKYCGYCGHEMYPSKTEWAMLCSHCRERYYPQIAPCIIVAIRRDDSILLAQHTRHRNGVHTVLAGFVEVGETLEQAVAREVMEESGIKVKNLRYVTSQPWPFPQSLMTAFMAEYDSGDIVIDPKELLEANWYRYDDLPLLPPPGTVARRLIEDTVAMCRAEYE",
  "assay": "in vitro de-capping of NAD-RNA, gel assay, NudC activity plotted against ppGpp",
  "format": "biochemical",
  "data": [
    {"smiles": "Nc1nc2c(ncn2[C@@H]2O[C@H](COP(=O)(O)OP(=O)(O)O)[C@@H](OP(=O)(O)OP(=O)(O)O)[C@H]2O)c(=O)[nH]1", "note": "[ppGpp]", "values": [
      {"measurement": "Ki", "value": "~70", "unit": "µM"}
    ]}
  ]
}
